{
  "source": "paper PMC6382874",
  "about": "“Succinylation-dependent mitochondrial translocation of PKM2 promotes cell survival in response to nutritional stress” (Cell Death & Disease, 2019)",
  "key": {"[1]": {"tested_on": "PKM2 knockdown HCT116 cells", "experiment": "annexin v stain apoptosis assay in PKM2 knockdown cells", "format": "cell-based, human", "conditions": "20 µM, 12 h", "description": "Fig. 5 Identification and characterization of PKM2 inhibitors. a PKM2 inhibitors. […] It prints only the data set name 'Data: pkm2_NDH', so the substance label is left empty. / Panel b, N: small print, 0.941 ±0.0712, digits uncertain / Panel b, K: small print, 8.63E4 ±3.63E4, the digits 8, 6 and 3 are uncertain / Panel b, ΔH: small print, -5962 ±675.9, the digits 5, 9 and 6 are uncertain / Panel b, ΔS: small print, 2.59, the digits 5 and 9 are uncertain\n(§1) We assessed the anti-tumor effects of compound 8 by evaluation of cancer cell viability. Compound 8 reduced cell viability with an IC50 of about 5 µM in MTT reduction assays in HCT116, MCF7, and H1299 cells (Table 2). […] To determine whether cancer cell death brought about by compound 8 is PKM2 dependent, PKM2 was knocked down in HCT116 cells using two different shRNA sequences that specifically targeted exon 10 without interfering with PKM1 expression. Compound 8 is an inhibitor which causes a loss of function of PKM2. If PKM2 is a specially targeted by compound 8, its knockdown should render cells more vulnerable to compound 8-mediated PKM2 inhibition since shRNA and compound 8 work synergistically by reducing the intracellular drug target concentration.\nTwo shRNAs with PKM2 specific exon 10 sequence knockdown were used (5'-[…]-3'; 5'-[…]-3'), and a shRNA with no effect on PKM2 levels was employed as a control (5'-[…]-3). […]"}, "HCT116 xenografts": {"tested_on": "HCT116 xenografts", "experiment": "HCT116 xenograft tumor growth in nude mice", "format": "in vivo, nude mice (BALB/C)", "conditions": "15mg/kg, intraperitoneal, once every two days", "method": "All animal procedures were performed in accordance with guidelines approved by the Animal Experimentation Ethics Committee of Peking University. Female nude mice (BALB/C, 4–6 weeks old) were injected with 2.0 × 10^6 HCT116 cells subcutaneously in the armpit. Approximately, 10 days later, pairs of mice (N = 7) were injected with compound 8 or vehicle control. Intraperitoneal injection was performed in the mouse. The animals were injected once every two days. Tumor measurements were performed once every 2 days. Tumor volume was calculated using the following equation: V = L(S2)π/6, where L is the longer and S is the shorter of the two tumor dimensions."}, "PKM2": {"target": "PKM2 (Homo sapiens, UniProt P14618)", "sequence (P14618 2-531 limits assumed)": "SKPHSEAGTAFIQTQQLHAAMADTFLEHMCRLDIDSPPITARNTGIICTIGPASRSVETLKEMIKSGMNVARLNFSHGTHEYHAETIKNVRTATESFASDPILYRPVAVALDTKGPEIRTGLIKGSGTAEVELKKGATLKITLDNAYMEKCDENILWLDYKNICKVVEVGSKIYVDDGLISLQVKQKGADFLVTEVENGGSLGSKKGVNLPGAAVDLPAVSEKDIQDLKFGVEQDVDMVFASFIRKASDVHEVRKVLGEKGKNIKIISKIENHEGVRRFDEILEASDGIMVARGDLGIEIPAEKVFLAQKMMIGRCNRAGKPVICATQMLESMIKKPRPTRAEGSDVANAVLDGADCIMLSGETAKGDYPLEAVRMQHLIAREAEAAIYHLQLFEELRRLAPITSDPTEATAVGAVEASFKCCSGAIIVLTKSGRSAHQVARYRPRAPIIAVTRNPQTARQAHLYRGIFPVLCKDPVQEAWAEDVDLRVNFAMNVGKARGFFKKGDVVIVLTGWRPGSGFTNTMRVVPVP", "experiment": "pyruvate kinase activity in lysate of treated HCT116 cells", "format": "cell-based", "parameters": "endogenous in cells; host or cells: HCT116", "conditions": "6 h treatment, Fig. 5c", "method": "HCT116 cells were seeded overnight into 6-well plates at 1,000,000 cells/well in DMEM media. Test compounds were added for 6 h. Cells were washed two times with ice-cold phosphate-buffered saline (PBS) and lysed in lysis buffer. Lysate was analyzed for pyruvate kinase activity as described above."}, "H1299 cells": {"tested_on": "H1299 cells", "experiment": "cell viability test, H1299", "format": "cell-based", "conditions": "cell viability, 48 h, read-out: IC50 (H1299)", "method": "as §1\nCells were seeded in 96-well plates at 5000 cells/well in DMEM media overnight. Cells were treated with different concentrations of test compound for 48 h at 37 °C in 5% CO2. Cell viability was assayed with the MTS assay (Promega) and trypan blue staining according to the manufacturer’s instructions."}, "[2]": {"tested_on": "PKM2 mitochondrial translocation", "experiment": "PKM2 mitochondrial translocation (fractionation, western blot) in HCT116 cells", "format": "cell-based, human", "conditions": "20 μM, glucose starvation, HCT116", "method": "Fig. 6 Compound 8 blocks PKM2 mitochondrial translocation under nutritional stress and inhibits tumor growth in vivo. a Compound 8 blocks glucose starvation induced PKM2 mitochondrial translocation. Isolation of mitochondria and immunoblot of PKM2, tubulin and Tom 40 were carried out with or without compound 8 treatment. b Compound 8 disrupts interaction of PKM2 and VDAC3. HCT116 cells were transfected with HA-tagged PKM2, cells were harvested and subjected to stag pull down after 8 h 20 µM compound 8 treatment. c Compound 8 induces VDAC3 for degradation. cells were harvested and evaluated VDAC3 protein levels after 8 h 10 or 20 µM compound 8 treatment. d, e Compound 8 caused a decrease in the rate of NADH oxidation. After 8 h of treatment with 20 µM compound 8, HCT116 cells mitochondria were isolated for NADH oxidation assays. NAD/NADH ratios in HCT116 cell lysates were evaluated by LC–MS. f Compound 8 inhibited ATP production in HCT116 cells. g The tumor volume (n = 7) of HCT116 xenografts from mice with intraperitoneal injection of compound 8 and vehicle control\nHCT116 cells were harvested and washed two times with cold PBS. Cells were then homogenized in a buffer (220 mM mannitol, 70 mM sucrose, 2 mM EGTA, 5 mM MOPS-Tris pH 7.4, 2 mM Taurine, 0.2% BSA). The homogenate was spun for 5 min at 800g.The supernatant containing the cytoplasmic and mitochondrial fractions were transferred to a fresh tube and spun for 5 min at 12,000g. The pellet contained the mitochondrial fraction and the supernatant contained the cytoplasmic fraction.\nCells were lysed in buffer containing 50 mM Tris pH8.0, 2 mM EDTA, 150 mM NaCl, 0.5% Nonidet P-40, 10% glycerol and protease inhibitor PMSF. Western blot analysis was carried out based on standard methods. The following commercial antibodies were used as probes: anti-Flag antibody (Sigma, F3165), anti-HA antibody (Sigma, H3663), anti-α-Tubulin (EasyBio, BE0026–100), anti-PKM2 (RuiYingBio, RLT3777), anti-TOM 40 (Santa Cruz sc-365467), anti-succinyllysine antibody (PTM BIO PTM-901), anti-GAPDH (SanJian)."}},
  "note": "Like-named read-outs stand apart in the source and are kept apart here.",
  "data": [
    {"smiles": "CCCN(CCC)P(N)(=O)OCC1=CC(=O)c2ccccc2C1=O", "note": "(stereo not shown) [Compound 8]", "values": [
      {"measurement": "apoptosis of PKM2 knockdown cells", "setting": "[1]", "value": "increased the apoptosis of PKM2 knockdown cells"},
      {"measurement": "colon cancer xenograft growth (tumor volume)", "setting": "HCT116 xenografts", "value": "significantly reduced"},
      {"measurement": "inhibition of PKM2 activity in cancer cells", "setting": "PKM2", "value": "inhibits PKM2 activity in HCT116 cells in a dose dependent manner"},
      {"measurement": "inhibition of PKM2 activity in cancer cells", "setting": "PKM2; listed as compound 8", "value": "dose dependent"},
      {"measurement": "IC50", "setting": "H1299 cells; Homo sapiens, NCI-H1299, 48 h", "value": "~5", "unit": "µM"},
      {"measurement": "IC50", "setting": "H1299 cells", "value": "4.75 ± 1.15", "unit": "µM"},
      {"measurement": "PKM2 mitochondrial translocation", "setting": "[2]", "value": "can restrain PKM2 mitochondrial translocation"}
    ]}
  ]
}
